Columns and labels:
[1] = test system: std1 mutant; assay: Inhibition of TAG and starch accumulation by LOX inhibitor in std1 mutant under nitrogen starvation; type: cell-based, Chlamydomonas reinhardtii; settings: 5 mM catechol, after 6-day under nitrogen starvation (FIG. 14)
Protocol: FIGS. 14A and 14B depict the inhibition of TAG and starch accumulation in the mutant by LOX inhibitors.
FIG. 14A depicts starch accumulation.
FIG. 14B depicts TAG accumulation.
The starch and chlorophyll contents were measured according to (Chochois et al., 2010). One mL of culture was harvested, centrifuged at ˜20,000 g for 10 min, resuspended in 1 mL of methyl alcohol for chlorophyll extraction and stored at −80° C. The pellets were dried, and 400 μL of water were added. To solubilize starch, the samples were autoclaved setting “dry cycle”. Subsequently, starch was degraded to glucose by adding 200 μL amyloglucosidase solution (1 U/mL, Roche) and incubation at 55° C. for 1-2 h. Using an automated sugar analyzer (Ysi model 2700 select, Yellow Springs, Ohio, USA), glucose concentration were determined. Chlorophyll was extracted by methanol, and chlorophyll a and b were determined by measuring the absorbance at 653, 666 and 750 nm using UV-VIS spectrophotometer (SAFAS UVmc2 with the software SP2000).
C. reinhardtii cells (eq. to 2 mm^3 total cellular volume) were harvested by centrifuge at 1000 g for 2 min (at 4° C.). The cells were either frozen right away under −80° C., or quenched in hot isopropanol for immediate lipid extractions. Total cellular lipids were extracted using a mixture of hexane and isopropanol (Li-Beisson et al., 2010). […]

[2] = test system: WT strains; assay: Inhibition of TAG and starch accumulation by LOX inhibitor in WT strains under nitrogen starvation; type: cell-based, Chlamydomonas reinhardtii; settings: in response to nitrogen starvation

Oc1ccccc1O [catechol]
TAG accumulation [1]: inhibited | starch accumulation [1]: inhibited | TAG accumulation [2]: inhibited | starch accumulation [2]: no effect

Source: patent US10513680B2, “Green microalgae lacking a functional DYRKP-1 gene, for use for increased production of feedstock” (COMMISSARIAT A L'ENERGIE ATOMIQUE ET AUX ENERGIES …, priority 2014, dated 2019)
